This passage reports TGI results from PubChem BioAssay (NCI).

Each structure is given as a SMILES string.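 Values below derive from 48-hour exposures of cells grown in 96-well plates, with endpoints linearly interpolated between the two concentrations bracketing the appropriate inhibition level. At the TGI there is no net growth.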

Some test systems named below: K-562 leukemia; M14 melanoma; OVCAR-8 ovarian; HS 578T breast; ACHN renal; KM12 colon; SNB-75 CNS; SK-OV-3 ovarian; DU-145 prostate.
Experiment in all cases: growth of human tumour cells (NCI), 48 h

`c1ccc(CSc2nc(N3CCOCC3)c3cn[nH]c3n2)cc1`: the TGI with K-562 leukemia was over 100 µM; in the assay with M14 melanoma, 49 µM; in the assay on OVCAR-8 ovarian, 89.1 µM; in the assay on HS 578T breast, 39.3 µM; with ACHN renal, 90.9 µM; in the assay on KM12 colon it was 38.5 µM. Further, the TGI in the assay on SNB-75 CNS, in the assay on SK-OV-3 ovarian and in the assay with DU-145 prostate was over 100 µM in each case.

For the compound `O=C(CSCC(=O)N/N=C\c1ccc(-c2ccccc2)cc1)N/N=C\c1ccc(-c2ccccc2)cc1`, the TGI was over 100 µM with K-562 leukemia; 91.2 µM in the assay on M14 melanoma; 58.2 µM in the assay on OVCAR-8 ovarian; 49.8 µM with HS 578T breast; 55.9 µM in the assay on ACHN renal; 49.2 µM in the assay on KM12 colon. Moreover, the TGI was 41.6 µM in the assay on SNB-75 CNS, 38.9 µM in the assay with SK-OV-3 ovarian and over 100 µM in the assay with DU-145 prostate.

On to `COC(=O)c1c(C)cccc1/C=C1\Cc2cc(C)cc(C)c2C1=O`, for which the TGI was over 100 µM in the assay with K-562 leukemia; over 100 µM with M14 melanoma; over 100 µM in the assay on OVCAR-8 ovarian; 69.7 µM with HS 578T breast; over 100 µM in the assay with ACHN renal; over 100 µM with KM12 colon. Also, the TGI was 38.4 µM in the assay with SNB-75 CNS and over 100 µM in the assay with DU-145 prostate.

With `Cc1c(NC(=S)Nc2ccc(Cl)cc2)c(=O)n(-c2ccccc2)n1C`, the TGI in the assay with K-562 leukemia, in the assay with M14 melanoma, in the assay with HS 578T breast, in the assay on ACHN renal, in the assay with KM12 colon and in the assay on SNB-75 CNS was over 100 µM each time. The TGI in the assay on SK-OV-3 ovarian and with DU-145 prostate was over 100 µM each time.

Take `O=[N+]([O-])c1cccnc1NCC1(CO)CC(Cc2ccccc2)C1` (configuration not stated): the TGI in the assay on K-562 leukemia, in the assay on OVCAR-8 ovarian, in the assay with HS 578T breast, in the assay with ACHN renal, with KM12 colon and in the assay on SNB-75 CNS was over 100 µM in each case. In addition, the TGI with SK-OV-3 ovarian and in the assay with DU-145 prostate was over 100 µM each time.

With `C=CC[C@H]1[C@H](O[Si](C)(C)C(C)(C)C)C=CC(=O)[C@@H]1CC(=O)N(Cc1ccccc1)Cc1ccccc1`, the TGI with K-562 leukemia, with M14 melanoma, with OVCAR-8 ovarian, in the assay on HS 578T breast, in the assay with ACHN renal and in the assay on KM12 colon was over 100 µM each time. Further, the TGI in the assay on SK-OV-3 ovarian and in the assay with DU-145 prostate was over 100 µM each time.

For the compound `COC(=O)/C=c1/c2ccccc2n2nc3ccccc3c12`, the TGI in the assay with K-562 leukemia, with M14 melanoma, in the assay on OVCAR-8 ovarian, in the assay with HS 578T breast, in the assay with ACHN renal and in the assay with KM12 colon was over 100 µM in each case. Besides, the TGI is 61.3 µM with SK-OV-3 ovarian and over 100 µM in the assay on DU-145 prostate.

On to `CC(C)C1OC(=O)/C=C/C=C/C=C/C=C/C=C/CC(O)CC(O)CC(O)CC(O)CC(O)CC(O)CC(O)CC(O)/C=C/C1C` (configuration not stated), for which the TGI in the assay with K-562 leukemia, in the assay on M14 melanoma, in the assay with OVCAR-8 ovarian, in the assay with ACHN renal, in the assay on KM12 colon and with SNB-75 CNS was over 100 µM throughout. In the assay with DU-145 prostate, this compound came in with a TGI of over 100 µM.

With `Cc1ccc(N=C2C(=O)C3=C(OC(C)(C)CC3)c3ccccc32)cc1`, the TGI was 0.86 µM with K-562 leukemia; 1.59 µM in the assay with M14 melanoma; over 23.2 µM in the assay with HS 578T breast; 1.54 µM in the assay on ACHN renal; 4.01 µM in the assay with KM12 colon; 2.51 µM in the assay with SNB-75 CNS. Also, the values for the TGI in the assay on SK-OV-3 ovarian and in the assay with DU-145 prostate were 3.1 µM and 2.59 µM, respectively.

Regarding `CC(C)CCn1c(=O)c2c(=O)[nH][nH]c2c2ccccc21`, the TGI in the assay with K-562 leukemia, with OVCAR-8 ovarian, in the assay with HS 578T breast, in the assay with ACHN renal, in the assay on KM12 colon and in the assay on DU-145 prostate was over 100 µM in each case.

Consider `S=C1N=C(Cl)C2(NN1)c1ccccc1-c1ccccc12`, for which the TGI in the assay on K-562 leukemia, in the assay on M14 melanoma, in the assay on OVCAR-8 ovarian, in the assay with HS 578T breast, in the assay with KM12 colon and in the assay on SNB-75 CNS was over 10 µM throughout. Also, the TGI with SK-OV-3 ovarian and in the assay with DU-145 prostate was over 10 µM in each case.

For `CN1CN(c2ccccc2)C2(CCN(CCc3csc4ccccc34)CC2)C1=O`, the TGI is 40.1 µM in the assay on K-562 leukemia; 38.4 µM in the assay with M14 melanoma; 51.6 µM in the assay with OVCAR-8 ovarian; 25.9 µM in the assay on KM12 colon; 38.5 µM in the assay on SNB-75 CNS; 76.9 µM in the assay on SK-OV-3 ovarian. Moreover, in the assay with DU-145 prostate, the TGI amounted to 54.2 µM.

In the case of `CNC1=CC(=O)C2=C(C1=O)[C@H]1CC[C@]3(C)C(=O)CC[C@H]3[C@@H]1CC2`, the TGI with K-562 leukemia was over 57.5 µM; in the assay with M14 melanoma, 28 µM; with OVCAR-8 ovarian, 29.5 µM; with ACHN renal, 71.4 µM; in the assay with KM12 colon, 23.6 µM; in the assay with SNB-75 CNS, 27.8 µM. Besides, the figures for the TGI in the assay with SK-OV-3 ovarian and with DU-145 prostate were over 100 µM and 28.8 µM, respectively.

`C[C@H](O)C1CC(Cn2nnc3c(N)ncnc32)C1(C)C` (some centres not stated): the TGI was 0.0411 µM in the assay with K-562 leukemia; over 100 µM in the assay on M14 melanoma; over 100 µM in the assay on HS 578T breast; over 100 µM in the assay on ACHN renal; over 100 µM with KM12 colon; over 100 µM in the assay on SNB-75 CNS. In addition, the TGI in the assay on SK-OV-3 ovarian and in the assay on DU-145 prostate was over 100 µM in each case.

For `CC(=O)Nc1ccc2[nH]c(-c3cccc(F)c3)cc(=O)c2c1`, the TGI in the assay on M14 melanoma is over 100 µM; with OVCAR-8 ovarian, over 31.6 µM; in the assay on HS 578T breast it was over 28.2 µM; in the assay on ACHN renal it was over 100 µM; with KM12 colon, over 100 µM; with SK-OV-3 ovarian, over 100 µM.

Turning to `CC1(C)Oc2ccc3c(=O)cc(-c4ccc(F)cc4)oc3c2C1C(=O)O` (configuration not stated), the TGI in the assay on K-562 leukemia, in the assay with M14 melanoma, in the assay on OVCAR-8 ovarian, with HS 578T breast, in the assay on SK-OV-3 ovarian and in the assay with DU-145 prostate was over 100 µM each time.
